Laboratory results: ChEMBL document CHEMBL4627385, “Cytotoxic Monoterpenoid Indole Alkaloids from Tabernaemontana corymbosa as Potent Autophagy Inhibitors by the Attenuation of Lysosomal Acidification” (J Nat Prod, 2020)
Calls of active or inactive are those of the source. The rule behind the calls is not given here.

Experiments:
Format in all cases: functional, cell-based
HeLa [1] = experiment: Inhibition of autophagic flux in human HeLa cells assessed as increase in LC3-2 to LC3-1 ratio at 50 nM by Western blot analysis
HeLa [2] = experiment: Inhibition of autophagic flux in human HeLa cells assessed as inhibition of lysosomal acidification at 50 nM by Western blot analysis
HeLa [3] = experiment: Inhibition of autophagic flux in human HeLa cells assessed as increase in LC3-2 accumulation at 50 nM by Western blot analysis
HeLa [4] = experiment: Inhibition of autophagic flux in human HeLa cells assessed as p62 protein expression at 50 nM by Western blot analysis
HeLa [5] = experiment: Inhibition of lysosomal acidification in human HeLa cells incubated for 3 hrs by LysoTracker Red DND-99 staining based array scan method
SMMC-7721 = experiment: Cytotoxicity against human SMMC7721 cells assessed as reduction in cell viability incubated for 48hrs by MTT assay; details: SMMC-7721, 48 h
SW480 = experiment: Cytotoxicity against human SW480 cells assessed as reduction in cell viability incubated for 48hrs by MTT assay; details: SW480, 48 h
MCF7 = experiment: Cytotoxicity against human MCF7 cells assessed as reduction in cell viability incubated for 48hrs by MTT assay; details: MCF7, 48 h
HL-60 = experiment: Cytotoxicity against human HL60 cells assessed as reduction in cell viability incubated for 48hrs by MTT assay; details: HL-60, 48 h
A549 = experiment: Cytotoxicity against human A549 cells assessed as reduction in cell viability incubated for 48hrs by MTT assay; details: A549, 48 h
HeLa [6] = experiment: Inhibition of autophagic flux in human HeLa cells assessed as increase in LC3-2 to LC3-1 ratio at 20 uM by Western blot analysis
HeLa [7] = experiment: Inhibition of autophagic flux in human HeLa cells assessed as increase in LC3-2 to LC3-1 ratio at 20 uM in presence of Bafilomycin A1 by Western blot analysis
HeLa [8] = experiment: Inhibition of autophagic flux in human HeLa cells harboring GFP-LC3 assessed as increase in LC3 dot accumulation incubated for 12 hrs by confocal microscopic method
HeLa [9] = experiment: Inhibition of autophagic flux in human HeLa cells assessed as p62 protein expression at 20 uM by Western blot analysis

| Structure (SMILES) | EC50 (HeLa [5]) [µM] | IC50 (SMMC-7721) [µM] | IC50 (SW480) [µM] | IC50 (MCF7) [µM] | IC50 (HL-60) [µM] | IC50 (A549) [µM] | other results |
| --- | --- | --- | --- | --- | --- | --- | --- |
| CO/C1=C\C(C)=C\[C@@H](C)[C@@H](O)[C@@H](C)C/C(C)=C/C=C/[C@H](OC)[C@@H]([C@@H](C)[C@@H](O)[C@H](C)[C@@]2(O)C[C@@H](O)[C@H](C)[C@@H](C(C)C)O2)OC1=O |  |  |  |  |  |  | inhibition (HeLa [1]): Active; inhibition (HeLa [2]): Active; inhibition (HeLa [3]): Active; inhibition (HeLa [4]): Active |
| CC[C@H]1C[C@@H]2CN3CCc4c([nH]c5cc(OC)ccc45)[C@](C(=O)OC)(C2)[C@H]13 [ISOVOACANGINE] | > 40 |  |  |  |  |  |  |
| CC[C@H]1C[C@@H]2CN3CCc4c([nH]c5cc(OC)c([C@@H]6C[C@H]7C(C(=O)OC)[C@H](Cc8c6[nH]c6ccccc86)N(C)C[C@H]7CC)cc45)[C@](C(=O)OC)(C2)[C@H]13 (stereo partly drawn) | 16 |  |  |  |  |  | inhibition (HeLa [5]): Dose-dependent effect |
| COC(=O)[C@@]12CC3C[C@H]([C@H](C)O)[C@@H]1N(C3)Cn1c2c(C=O)c2ccccc21 | > 40 | > 10 | > 10 | > 10 | > 10 | > 10 |  |
| C/C=C1/CN(C)[C@H]2Cc3c([nH]c4ccccc34)[C@H](c3c(OC)ccc4c3N[C@]3(OC)[C@]5(C(=O)OC)C[C@H]6C[C@H](CC)[C@@H]5N5CC[C@@]43O[C@H]65)C[C@H]1[C@]2(CO)C(=O)OC | > 40 | > 10 | > 10 | > 10 | > 10 | > 10 |  |
| C/C=C1/CN2COC[C@]3(C(=O)OC)[C@@H]1C[C@@H](c1c(OC)ccc4c5c([nH]c14)[C@]1(C(=O)OC)C[C@H]4C[C@H](CC)[C@@H]1N(CC5)C4=O)c1[nH]c4ccccc4c1C[C@H]23 | > 40 | > 10 | > 10 | > 10 | > 10 | > 10 |  |
| COC(=O)[C@@]12C[C@@H]3C[C@H]([C@H](C)O)C1[N@@](CCc1c2[nH]c2ccccc12)C3 | > 40 |  |  |  |  |  |  |
| C/C=C1/CN(C)[C@H]2Cc3c([nH]c4ccccc34)[C@H](c3c(OC)ccc4c3N=C3[C@]5(C(=O)OC)C[C@@H]6C[C@H](CC)[C@@H]5N(CC[C@]34O)C6)C[C@H]1[C@]2(CO)C(=O)OC | > 40 |  |  |  |  |  |  |
| COC(=O)C[C@@H]1[C@@H]2C[C@H]([C@H](C)O)[C@@H]3N1CCc1c([nH]c4ccc(OC)cc14)[C@]3(C(=O)OC)C2 | > 40 | > 10 | > 10 | > 10 | > 10 | > 10 |  |
| CC[C@H]1C[C@@H]2CN3CCc4c([nH]c5ccccc45)[C@](C(=O)OC)(C2)[C@H]13 [CORONARIDINE] | > 40 |  |  |  |  |  |  |
| COC(=O)[C@@]12C[C@@H]3CC([C@H](C)O)[C@@H]1[N@@](CC[C@]1(O)C2=Nc2ccccc21)C3 (stereo partly drawn) | > 40 |  |  |  |  |  |  |
| C/C=C1/CN2COC[C@]3(C(=O)OC)[C@@H]1C[C@@H](c1c(OC)ccc4c1N=C1[C@]5(C(=O)OC)C[C@@H]6C[C@H](CC)[C@@H]5N(CC[C@]14O)C6)c1[nH]c4ccccc4c1C[C@H]23 | > 40 |  |  |  |  |  |  |
| C/C=C1/CN(C)[C@H]2Cc3c([nH]c4ccccc34)[C@H](OC)C[C@H]1[C@]2(CO)C(=O)OC | > 40 | > 10 | > 10 | > 10 | > 10 | > 10 |  |
| COC(=O)[C@@]12C[C@@H]3C[C@@H]([C@H](C)O)C1[N@@](CCc1c2[nH]c2ccccc12)C3 | > 40 |  |  |  |  |  |  |
| COC(=O)C[C@@H]1[C@@H]2C[C@H]([C@H](C)O)[C@@H]3N1CCc1c([nH]c4cc(OC)ccc14)[C@]3(C(=O)OC)C2 | > 40 | > 10 | > 10 | > 10 | > 10 | > 10 |  |
| COC(=O)[C@@]12C[C@@H]3CC([C@H](C)O)[C@@H]1[N@@](CC[C@]1(O)C2=Nc2ccc(OC)cc21)C3 (stereo partly drawn) | > 40 |  |  |  |  |  |  |
| C/C=C1/CN(C)[C@H]2Cc3c([nH]c4ccccc34)[C@H](c3cc4c(cc3OC)N=C3[C@]5(C(=O)OC)C[C@]6(C(=O)OC)C[C@H](CC)[C@@H]5N(CC[C@@]34O)C6)C[C@H]1[C@]2(CO)C(=O)OC | 25.7 |  |  |  |  |  | inhibition (HeLa [5]): Dose-dependent effect |
| C/C=C1/CN2COC[C@@]3(C(=O)OC)[C@@H]1C[C@@H](c1c(OC)ccc4c5c([nH]c14)[C@]1(C(=O)OC)C[C@@H]4C[C@H](CC)[C@@H]1N(CC5)C4)c1[nH]c4ccccc4c1C[C@H]23 | > 40 |  |  |  |  |  |  |
| CC[C@H]1C[C@H]2C[N@]3CCc4c([nH]c5ccc(OC)cc45)[C@](C(=O)OC)(C2)[C@H]13 | > 40 |  |  |  |  |  |  |
| CC[C@H]1C[C@H]2CN3CCc4c([nH]c5cc(OC)c([C@@H]6C[C@H]7[C@@]8(C(=O)OC)CO[C@H](N(C)[C@H]8Cc8c6[nH]c6ccccc86)[C@@]76O[C@H]6C)cc45)[C@](C(=O)OC)(C2)[C@H]13 | 20.2 | < 10 | > 10 | < 10 | < 10 | < 10 | inhibition (HeLa [6]): Active; inhibition (HeLa [7]): Active; inhibition (HeLa [8]): Active; inhibition (HeLa [9]): Active; inhibition (HeLa [5]): Dose-dependent effect |
| C/C=C1/CN(C)[C@H]2Cc3c([nH]c4ccccc34)[C@H](c3c(OC)ccc4c5c([nH]c34)[C@]3(C(=O)OC)C[C@H]4C[C@H](CC)[C@@H]3N(C4)C[C@H]5OC)C[C@H]1[C@]2(CO)C(=O)OC | > 40 | > 10 | > 10 | > 10 | > 10 | > 10 |  |
| CC[C@H]1C[C@]2(C(=O)OC)CN3CC[C@@]4(O)C(=Nc5cc(OC)c([C@@H]6C[C@H]7[C@@]8(C(=O)OC)CO[C@H](N(C)[C@H]8Cc8c6[nH]c6ccccc86)[C@@]76O[C@H]6C)cc54)[C@](C(=O)OC)(C2)[C@H]13 | 12.9 |  |  |  |  |  | inhibition (HeLa [6]): Active; inhibition (HeLa [7]): Active; inhibition (HeLa [8]): Active; inhibition (HeLa [9]): Active; inhibition (HeLa [5]): Dose-dependent effect |
| CC[C@H]1C[C@H]2CN3CC[C@@]4(O)C(=Nc5cc(OC)ccc54)[C@](C(=O)OC)(C2)[C@H]13 | > 40 | > 10 | 7.5 | > 10 | > 10 | > 10 |  |
| CCN(CC)CCCC(C)Nc1ccnc2cc(Cl)ccc12 (stereo not drawn) [CHLOROQUINE] | 19.6 |  |  |  |  |  |  |
| C/C=C1/CN2COC[C@@]3(C(=O)OC)[C@@H]1C[C@H](c1cc4c5c([nH]c4cc1OC)[C@]1(C(=O)OC)C[C@@H]4C[C@H](CC)[C@@H]1N(CC5)C4)c1[nH]c4ccccc4c1C[C@H]23 | 29.8 | 4.7 | 3.5 | 4 | 3.2 | 8.6 | inhibition (HeLa [5]): Dose-dependent effect |
| CC[C@H]1C[C@H]2C[C@@]3(C(=O)OC)c4[nH]c5ccccc5c4CC[N@@](C2CC(C)=O)[C@@H]13 (stereo partly drawn) | > 40 |  |  |  |  |  |  |
| CC[C@H]1C[C@H]2C[C@@]3(C(=O)OC)c4[nH]c5cc(OC)ccc5c4CC[N@@](C2CC(C)=O)[C@@H]13 (stereo partly drawn) | > 40 |  |  |  |  |  |  |
